Laboratory results from patent US9539252B2, “Piperazine-substituted benzothiophene derivatives as antipsychotic agents” (OTSUKA PHARMACEUTICAL CO., LTD., priority 2011, dated 2017).

Assay: Solubility in oil (sesame oil, benzyl benzoate), visual observation
Settings: benzyl benzoate, oil or lipid, thermodynamic from solid

solubility, > 100 mg/mL:
O=C(OCN1C(=O)CCc2ccc(OCCCCN3CCN(c4cccc5sccc45)CC3)cc21)N1CCCCC1 [Example 9, piperidine-1-carboxylic acid 7-[4-(4-benzo[b]thiophen-4-ylpiperazin-1-yl)butoxy]-2-oxo-3,4-dihydro-2H-quinolin-1-ylmethyl ester]
O=C(OCn1c(=O)ccc2ccc(OCCCCN3CCN(c4cccc5sccc45)CC3)cc21)N1CCCCC1 [Example 10, piperidine-1-carboxylic acid 7-[4-(4-benzo[b]thiophen-4-ylpiperazin-1-yl)butoxy]-2-oxo-2H-quinolin-1-ylmethyl ester]
O=C(OCN1C(=O)CCc2ccc(OCCCCN3CCN(c4cccc5sccc45)CC3)cc21)c1ccccc1 [Example 11, benzoic acid 7-[4-(4-benzo[b]thiophen-4-ylpiperazin-1-yl)butoxy]-2-oxo-3,4-dihydro-2H-quinolin-1-ylmethyl ester]
O=C(OCn1c(=O)ccc2ccc(OCCCCN3CCN(c4cccc5sccc45)CC3)cc21)c1ccccc1 [Example 12, benzoic acid 7-[4-(4-benzo[o]thiophen-4-ylpiperazin-1-yl)butoxy]-2-oxo-2H-quinolin-1-ylmethyl ester]
O=C(OCN1C(=O)CCc2ccc(OCCCCN3CCN(c4cccc5sccc45)CC3)cc21)C1CCCC1 [Example 13, cyclopentanecarboxylic acid 7-[4-(4-benzo[b]thiophen-4-ylpiperazin-1-yl)butoxy]-2-oxo-3,4-dihydro-2H-quinolin-1-ylmethyl ester]
O=C(OCN1C(=O)CCc2ccc(OCCCCN3CCN(c4cccc5sccc45)CC3)cc21)C1CCCCC1 [Example 14, cyclohexanecarboxylic acid 7-[4-(4-benzo[b]thiophen-4-ylpiperazin-1-yl)butoxy]-2-oxo-3,4-dihydro-2H-quinolin-1-ylmethyl ester]
CC(C)(C)C(=O)OCN1C(=O)CCc2ccc(OCCCCN3CCN(c4cccc5sccc45)CC3)cc21 [Example 15, 2,2-dimethylpropionic acid 7-[4-(4-benzo[b]thiophen-4-ylpiperazin-1-yl)butoxy]-2-oxo-3,4-dihydro-2H-quinolin-1-ylmethyl ester]
CCCCN(C)C(=O)OCN1C(=O)CCc2ccc(OCCCCN3CCN(c4cccc5sccc45)CC3)cc21 [Example 16, N-butyl-N-methylcarbamic acid 7-[4-(4-benzo[b]thiophen-4-ylpiperazin-1-yl)butoxy]-2-oxo-3,4-dihydro-2H-quinolin-1-ylmethyl ester]
CCCCCCCCCCNC(=O)OCN1C(=O)CCc2ccc(OCCCCN3CCN(c4cccc5sccc45)CC3)cc21 [Example 17, N-decylcarbamic acid 7-[4-(4-benzo[b]thiophen-4-ylpiperazin-1-yl)butoxy]-2-oxo-3,4-dihydro-2H-quinolin-1-ylmethyl ester]
CC(C)(C)C(=O)OCn1c(=O)ccc2ccc(OCCCCN3CCN(c4cccc5sccc45)CC3)cc21 [Example 18, 2,2-dimethylpropionic acid 7-[4-(4-benzo[b]thiophen-4-ylpiperazin-1-yl)butoxy]-2-oxo-2H-quinolin-1-ylmethyl ester]
CCCC(=O)OCN1C(=O)CCc2ccc(OCCCCN3CCN(c4cccc5sccc45)CC3)cc21 [Example 19, butyric acid 7-[4-(4-benzo[b]thiophen-4-ylpiperazin-1-yl)butoxy]-2-oxo-3,4-dihydro-2H-quinolin-1-ylmethyl ester]
CCCC(=O)OCn1c(=O)ccc2ccc(OCCCCN3CCN(c4cccc5sccc45)CC3)cc21 [Example 20, butyric acid 7-[4-(4-benzo[b]thiophen-4-ylpiperazin-1-yl)butoxy]-2-oxo-2H-quinolin-1-ylmethyl ester]
CCCCCCCCCCCC(=O)OCN1C(=O)CCc2ccc(OCCCCN3CCN(c4cccc5sccc45)CC3)cc21 [Example 21, dodecanoic acid 7-[4-(4-benzo[b]thiophen-4-ylpiperazin-1-yl)butoxy]-2-oxo-3,4-dihydro-2H-quinolin-1-ylmethyl ester]
CCCCCCCCCCCC(=O)OCn1c(=O)ccc2ccc(OCCCCN3CCN(c4cccc5sccc45)CC3)cc21 [Example 22, dodecanoic acid 7-[4-(4-benzo[b]thiophen-4-ylpiperazin-1-yl)butoxy]-2-oxo-2H-quinolin-1-ylmethyl ester]
CCCCCCCCCCCCCCCC(=O)OCN1C(=O)CCc2ccc(OCCCCN3CCN(c4cccc5sccc45)CC3)cc21 [Example 23, hexadecanoic acid 7-[4-(4-benzo[b]thiophen-4-ylpiperazin-1-yl)butoxy]-2-oxo-3,4-dihydro-2H-quinolin-1-ylmethyl ester]
CCCCCCCC(=O)OCN1C(=O)CCc2ccc(OCCCCN3CCN(c4cccc5sccc45)CC3)cc21 [Example 24, octanoic acid 7-[4-(4-benzo[b]thiophen-4-ylpiperazin-1-yl)butoxy]-2-oxo-3,4-dihydro-2H-quinolin-1-ylmethyl ester]
CCCCNC(=O)OCN1C(=O)CCc2ccc(OCCCCN3CCN(c4cccc5sccc45)CC3)cc21 [Example 27, N-butylcarbamic acid 7-[4-(4-benzo[b]thiophen-4-ylpiperazin-1-yl)butoxy]-2-oxo-3,4-dihydro-2H-quinolin-1-ylmethyl ester]
CCCCN(CCCC)C(=O)OCN1C(=O)CCc2ccc(OCCCCN3CCN(c4cccc5sccc45)CC3)cc21 [Example 28, N,N-dibutylcarbamic acid 7-[4-(4-benzo[b]thiophen-4-ylpiperazin-1-yl)butoxy]-2-oxo-3,4-dihydro-2H-quinolin-1-ylmethyl ester]
O=C(NCC1CCCCC1)OCN1C(=O)CCc2ccc(OCCCCN3CCN(c4cccc5sccc45)CC3)cc21 [Example 29, N-cyclohexylmethylcarbamic acid 7-[4-(4-benzo[b]thiophen-4-ylpiperazin-1-yl)butoxy]-2-oxo-3,4-dihydro-2H-quinolin-1-ylmethyl ester]
CCCCCCCC(=O)OCn1c(=O)ccc2ccc(OCCCCN3CCN(c4cccc5sccc45)CC3)cc21 [Example 30, octanoic acid 7-[4-(4-benzo[b]thiophen-4-ylpiperazin-1-yl)butoxy]-2-oxo-2H-quinolin-1-ylmethyl ester]
CCCCCCCCCCCCCCCCCCCC(=O)OCN1C(=O)CCc2ccc(OCCCCN3CCN(c4cccc5sccc45)CC3)cc21 [Example 31, icosanoic acid 7-[4-(4-benzo[b]thiophen-4-ylpiperazin-1-yl)butoxy]-2-oxo-3,4-dihydro-2H-quinolin-1-ylmethyl ester]
O=C(OCn1c(=O)ccc2ccc(OCCCCN3CCN(c4cccc5sccc45)CC3)cc21)C1CCCCC1 [Example 32, cyclohexanecarboxylic acid 7-[4-(4-benzo[b]thiophen-4-ylpiperazin-1-yl)butoxy]-2-oxo-2H-quinolin-1-ylmethyl ester]
CCCCCCCC/C=C\CCCCCCCC(=O)OCN1C(=O)CCc2ccc(OCCCCN3CCN(c4cccc5sccc45)CC3)cc21 [Example 33, (Z)-octadec-9-enoic acid 7-[4-(4-benzo[b]thiophen-4-ylpiperazin-1-yl)butoxy]-2-oxo-3,4-dihydro-2H-quinolin-1-ylmethyl ester]
CCCCCCCCCCNC(=O)OCn1c(=O)ccc2ccc(OCCCCN3CCN(c4cccc5sccc45)CC3)cc21 [Example 34, N-decylcarbamic acid 7-[4-(4-benzo[b]thiophen-4-ylpiperazin-1-yl)butoxy]-2-oxo-2H-quinolin-1-ylmethyl ester]
CCCCNC(=O)OCn1c(=O)ccc2ccc(OCCCCN3CCN(c4cccc5sccc45)CC3)cc21 [Example 35, N-butylcarbamic acid 7-[4-(4-benzo[b]thiophen-4-ylpiperazin-1-yl)butoxy]-2-oxo-2H-quinolin-1-ylmethyl ester]
CCCCN(C)C(=O)OCn1c(=O)ccc2ccc(OCCCCN3CCN(c4cccc5sccc45)CC3)cc21 [Example 36, N-butyl-N-methylcarbamic acid 7-[4-(4-benzo[b]thiophen-4-ylpiperazin-1-yl)butoxy]-2-oxo-2H-quinolin-1-ylmethyl ester]
O=C(OCn1c(=O)ccc2ccc(OCCCCN3CCN(c4cccc5sccc45)CC3)cc21)C1CCCC1 [Example 37, cyclopentanecarboxylic acid 7-[4-(4-benzo[b]thiophen-4-ylpiperazin-1-yl)butoxy]-2-oxo-2H-quinolin-1-ylmethyl ester]
CCCCCCCCCCCCCCCCCCNC(=O)OCn1c(=O)ccc2ccc(OCCCCN3CCN(c4cccc5sccc45)CC3)cc21 [Example 38, N-octadecylcarbamic acid 7-[4-(4-benzo[b]thiophen-4-ylpiperazin-3-yl)butoxy]-2-oxo-2H-quinolin-1-ylmethyl ester]
CCCCCCCC/C=C\CCCCCCCC(=O)OCn1c(=O)ccc2ccc(OCCCCN3CCN(c4cccc5sccc45)CC3)cc21 [Example 39, (Z)-octadec-9-enoic acid 7-[4-(4-benzo[b]thiophen-4-ylpiperazin-1-yl)butoxy]-2-oxo-2H-quinolin-1-ylmethyl ester]
CCCCCC(CCCCC)C(=O)OCN1C(=O)CCc2ccc(OCCCCN3CCN(c4cccc5sccc45)CC3)cc21 [Example 40, 2-pentylheptanoic acid 7-[4-(4-benzo[b]thiophen-4-ylpiperazin-1-yl)butoxy]-2-oxo-3,4-dihydro-2H-quinolin-1-ylmethyl ester]
CCCCCCCCCCCCCCCCCCCC(=O)OCn1c(=O)ccc2ccc(OCCCCN3CCN(c4cccc5sccc45)CC3)cc21 [Example 41, icosanoic acid 7-[4-(4-benzo[b]thiophen-4-ylpiperazin-1-yl)butoxy]-2-oxo-2H-quinolin-1-ylmethyl ester]

Same assay, conditions: sesame oil, oil or lipid, thermodynamic from solid

solubility, > 100 mg/mL:
CCCCCCCCCCNC(=O)OCN1C(=O)CCc2ccc(OCCCCN3CCN(c4cccc5sccc45)CC3)cc21 [Example 17, N-decylcarbamic acid 7-[4-(4-benzo[b]thiophen-4-ylpiperazin-1-yl)butoxy]-2-oxo-3,4-dihydro-2H-quinolin-1-ylmethyl ester]
CCCCCCCCCCCC(=O)OCN1C(=O)CCc2ccc(OCCCCN3CCN(c4cccc5sccc45)CC3)cc21 [Example 21, dodecanoic acid 7-[4-(4-benzo[b]thiophen-4-ylpiperazin-1-yl)butoxy]-2-oxo-3,4-dihydro-2H-quinolin-1-ylmethyl ester]
CCCCN(CCCC)C(=O)OCN1C(=O)CCc2ccc(OCCCCN3CCN(c4cccc5sccc45)CC3)cc21 [Example 28, N,N-dibutylcarbamic acid 7-[4-(4-benzo[b]thiophen-4-ylpiperazin-1-yl)butoxy]-2-oxo-3,4-dihydro-2H-quinolin-1-ylmethyl ester]
